The results in this text go back to patent publication US10695562B2, “Interventional drug delivery system and associated methods” (The University of North Carolina at Chapel Hill, priority 2009, dated 2020).

Structures are written as SMILES.

A short description of data set [1]: Gemcitabine transport in orthotopic xenograft tumors, transport testing system, HPLC. The data set is classed as in vitro ADME. Conditions: constant current 20 mA, 20 minutes, tumors 1.25 to 1.5 cm. How it is done: To assess and optimize the electrical transport parameters in tissue, a transport testing system was built (see FIG. 32A). The transport of gemcitabine, the current standard-of-care therapy for pancreatic cancer, was evaluated in orthotopic xenograft tumors using this transport testing system (see FIG. 32B). The tumors chosen for the studies were 1.25 to 1.5 cm in diameter because of compatibility with the size of the transport cell. The gemcitabine was used according to the current clinical formulation (Gemzar® to Eli Lilly and Company), at a concentration relevant to that administered in the clinic. For three tumors, a constant current of 20 mA was applied for 20 minutes, and the amount of gemcitabine was evaluated using a high-performance liquid chromatography (HPLC) analysis method. For three additional tumors, no current was applied, which allowed for passive diffusion of the gemcitabine into the tumor, and the amount of gemcitabine was evaluated using the same HPLC analysis method.

Data set [2] can be described thus: Plasma concentrations of gemcitabine, implantable device on canine pancreas, UV-HPLC. Also on record: key to Gem Concentration (plasma): *: Below limit of detection. Type of data set: in vivo. As for the experimental part: The reservoir based system similar to that shown in FIGS. 33A-D was surgically implanted onto the pancreas of a canine. All animal models were anesthetized and attached to a respirator for the entirety of the study. The implantable device approach was assessed via a laparotomy. The pancreas was assessed for ease of access.
There were three arms for the large animal experiment: 1. Device with current; 2. Device without current; and 3. IV Infusion (see Table 2). The device was sutured onto the right lobe of the canine pancreas. Gemcitabine formulated at clinically relevant concentrations was pumped into and out of the device at ˜1.5 mL/min during the application of 10 mA of current applied for 60 minutes. Control experiments were run without current. After administration of therapy, the pancreas was excised and snap frozen for analysis. The gemcitabine was measured from the section tissue using UV-HPLC from established protocols in the literature (see Olive, K P, et al. Science 324 (2009) 1457-1461 and Kirstein M N, et al., J Chromatogr B Analyt Technol Biomed Life Sci. 835 (2006) 136-142). Shown in FIG. 34 are the results obtained from the three experimental arms analyzing the mass of gemcitabine from the entire pancreas.
In FIG. 35, the transport distance of the gemcitabine is shown for the with and without current arms. […] Plasma concentrations of gemcitabine were detected at 15-minute increments prior to and during the large animal study. The tissue was sectioned using a cryostat microtome and gemcitabine was extracted using an established extraction method (see Olive et al.). The gemcitabine was detected and quantified using UV-HPLC (see Olive et al. and Kirstein et al.).

In the case of `Nc1ccn([C@@H]2O[C@H](CO)[C@@H](O)C2(F)F)c(=O)n1` [Gemcitabine, gemcitabine], the “increase in the amount of gemcitabine within tumor compared to the control (no current applied)” value in data set [1] was “eight-fold increase”. For the same compound, the “Gem Concentration (plasma)” value is on record as “*” in data set [2] (Device - Current Applied (10 mA), sample 0 min); “*” in data set [2] (Device - Current Applied (10 mA), sample 15 min); “*” in data set [2] (Device - Current Applied (10 mA), sample 30 min); “*” in data set [2] (Device - Current Applied (10 mA), sample 45 min); “*” in data set [2] (Device - Current Applied (10 mA), sample 60 min); “*” in data set [2] (Device - Current Applied (10 mA), sample −15 min). For the same compound, the “Gem Concentration (plasma)” value in data set [2] (Device - No Current, sample 0 min) is listed as “*”; in data set [2] (Device - No Current, sample 15 min), “*”; in data set [2] (Device - No Current, sample 30 min), “*”; in data set [2] (Device - No Current, sample 45 min), “*”; in data set [2] (Device - No Current, sample 60 min), “*”; in data set [2] (Device - No Current, sample −15 min), “*”. Also, the “gemcitabine levels detected in the plasma of the dogs” value in data set [2] (with and without current arms, device on pancreas) is given as “below the detectable limit”.
